Reference: US4038388A, “Antimicrobial compositions” (Paterson Zochonis & Company Limited, priority 1976, dated 1977)

Experiments:
Experiment in all cases: Antibiotic Sensitivity
Assay type in all cases: cell-based
Kleb, acrogenes 8172 = test system: Kleb, acrogenes 8172; note: key: R: resistant; S: sensitive; SS: slightly sensitive
Ps. aeruginosa 1999 = test system: Ps. aeruginosa 1999; note: key: R: resistant; S: sensitive; SS: slightly sensitive
Coliform 578 = test system: Coliform 578; note: key: R: resistant; S: sensitive; SS: slightly sensitive
Pr. miribilis 25702 = test system: Pr. miribilis 25702; note: key: R: resistant; S: sensitive; SS: slightly sensitive
Pr. mirabilis 5887 = test system: Pr. mirabilis 5887
E. coli 9395 = test system: E. coli 9395; note: key: R: resistant; S: sensitive; SS: slightly sensitive
Kleb. aerogenes 22352 = test system: Kleb. aerogenes 22352; note: key: R: resistant; S: sensitive; SS: slightly sensitive
Proteus 20029 = test system: Proteus 20029
Strep. faecalia 559 = test system: Strep. faecalia 559; note: key: R: resistant; S: sensitive; SS: slightly sensitive
Ps. multivorans BS = test system: Ps. multivorans BS; note: key: R: resistant; S: sensitive; SS: slightly sensitive
Strep. faecalis 20190 = test system: Strep. faecalis 20190; note: key: R: resistant; S: sensitive; SS: slightly sensitive
Proteus 20523 = test system: Proteus 20523
Candida albicans = test system: Candida albicans; note: key: R: resistant; S: sensitive; SS: slightly sensitive
Staph. aureus 590 = test system: Staph. aureus 590; note: key: R: resistant; S: sensitive; SS: slightly sensitive
Staph. albus 474 = test system: Staph. albus 474; note: key: R: resistant; S: sensitive; SS: slightly sensitive
Proteus 20531 = test system: Proteus 20531
Staph. pyogenes = test system: Staph. pyogenes; note: key: R: resistant; S: sensitive; SS: slightly sensitive
Coliform 608 = test system: Coliform 608; note: key: R: resistant; S: sensitive; SS: slightly sensitive
E. coli 604 = test system: E. coli 604; note: key: R: resistant; S: sensitive; SS: slightly sensitive
Pr. vulgaris 4635 = test system: Pr. vulgaris 4635; note: key: R: resistant; S: sensitive; SS: slightly sensitive
Pr. mirabilis 25942 = test system: Pr. mirabilis 25942
E. coli 566 = test system: E. coli 566; note: key: R: resistant; S: sensitive; SS: slightly sensitive
Staph. albus 476 = test system: Staph. albus 476; note: key: R: resistant; S: sensitive; SS: slightly sensitive
Ps. aeruginosa 5267 = test system: Ps. aeruginosa 5267; note: key: R: resistant; S: sensitive; SS: slightly sensitive
Coliform 518 = test system: Coliform 518; note: key: R: resistant; S: sensitive; SS: slightly sensitive
Staph. aureus 7447 = test system: Staph. aureus 7447; note: key: R: resistant; S: sensitive; SS: slightly sensitive
E. coli 026 = test system: E. coli 026; note: key: R: resistant; S: sensitive; SS: slightly sensitive
E. coli 559 = test system: E. coli 559; note: key: R: resistant; S: sensitive; SS: slightly sensitive
Pr. rettgeri 7475 = test system: Pr. rettgeri 7475; note: key: R: resistant; S: sensitive; SS: slightly sensitive
Staph. aureus 20477 = test system: Staph. aureus 20477; note: key: R: resistant; S: sensitive; SS: slightly sensitive
Ps. multivorans MB = test system: Ps. multivorans MB; note: key: R: resistant; S: sensitive; SS: slightly sensitive
Proteus 371 = test system: Proteus 371
Staph. albus 479 = test system: Staph. albus 479; note: key: R: resistant; S: sensitive; SS: slightly sensitive
Serratia marcescens = test system: Serratia marcescens; note: key: R: resistant; S: sensitive; SS: slightly sensitive
Staph. albus 473 = test system: Staph. albus 473; note: key: R: resistant; S: sensitive; SS: slightly sensitive
Proteus 20522 = test system: Proteus 20522

| SMILES | Antibiotic Sensitivity (Kleb, acrogenes 8172) | Antibiotic Sensitivity (Ps. aeruginosa 1999) | Antibiotic Sensitivity (Coliform 578) | Antibiotic Sensitivity (Pr. miribilis 25702) | Antibiotic Sensitivity (E. coli 9395) | Antibiotic Sensitivity (Kleb. aerogenes 22352) | Antibiotic Sensitivity (Strep. faecalia 559) | Antibiotic Sensitivity (Ps. multivorans BS) | Antibiotic Sensitivity (Strep. faecalis 20190) | Antibiotic Sensitivity (Candida albicans) | Antibiotic Sensitivity (Staph. aureus 590) | Antibiotic Sensitivity (Staph. albus 474) | Antibiotic Sensitivity (Staph. pyogenes) | Antibiotic Sensitivity (Coliform 608) | Antibiotic Sensitivity (E. coli 604) | Antibiotic Sensitivity (Pr. vulgaris 4635) | Antibiotic Sensitivity (E. coli 566) | Antibiotic Sensitivity (Staph. albus 476) | Antibiotic Sensitivity (Ps. aeruginosa 5267) | Antibiotic Sensitivity (Coliform 518) | further results |
| --- | --- | --- | --- | --- | --- | --- | --- | --- | --- | --- | --- | --- | --- | --- | --- | --- | --- | --- | --- | --- | --- |
| Oc1ccc(Cl)c2cccnc12 [CHQ, 5-chloro-8-hydroxyquinoline] | S | R | S | S | S | S | S | S | S | S | S | S | S | S | S | S | S | S | R | S | Antibiotic Sensitivity (Pr. mirabilis 5887): S; Antibiotic Sensitivity (Proteus 20029): S; Antibiotic Sensitivity (Proteus 20523): S; Antibiotic Sensitivity (Proteus 20531): S; Antibiotic Sensitivity (Pr. mirabilis 25942): S; Antibiotic Sensitivity (Staph. aureus 7447): S; Antibiotic Sensitivity (E. coli 026): S; Antibiotic Sensitivity (E. coli 559): S; Antibiotic Sensitivity (Pr. rettgeri 7475): S; Antibiotic Sensitivity (Staph. aureus 20477): S; Antibiotic Sensitivity (Ps. multivorans MB): S; Antibiotic Sensitivity (Proteus 371): S; Antibiotic Sensitivity (Staph. albus 479): S; Antibiotic Sensitivity (Serratia marcescens): S; Antibiotic Sensitivity (Staph. albus 473): S; Antibiotic Sensitivity (Proteus 20522): S |
| CN(C)[C@@H]1C(=O)C(C(N)=O)=C(O)[C@@]2(O)C(=O)C3=C(O)c4c(O)cccc4[C@@](C)(O)[C@H]3C[C@@H]12 [Tetracycline, tetracycline] | S | S | S | S | S | S | R | S | R | R | R | R | R | S | S | S | S | R | S | S | Antibiotic Sensitivity (Staph. aureus 7447): S; Antibiotic Sensitivity (E. coli 026): R; Antibiotic Sensitivity (E. coli 559): S; Antibiotic Sensitivity (Pr. rettgeri 7475): S; Antibiotic Sensitivity (Staph. aureus 20477): R; Antibiotic Sensitivity (Ps. multivorans MB): S; Antibiotic Sensitivity (Staph. albus 479): R; Antibiotic Sensitivity (Serratia marcescens): S; Antibiotic Sensitivity (Staph. albus 473): R |
